Test results taken from PubChem BioAssay (NCI).
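Compound exposure: 48 hours, 5 concentrations, 96-well plates. Abbreviation: GI50, concentration required for 50% inhibition of growth. The concentration for full growth arrest is given as TGI.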

Experiments:
Experiment in all cases: growth of human tumour cells (NCI), 48 h; in the data active means GI50 below about 0.43 µM; inactive means the rest
DLD-1 colon = tested on: DLD-1 colon
IGROV1 ovarian = tested on: IGROV1 ovarian
LXFL 529 NSCLC = tested on: LXFL 529 NSCLC
M14 melanoma = tested on: M14 melanoma
SF-539 CNS = tested on: SF-539 CNS
SK-MEL-5 melanoma = tested on: SK-MEL-5 melanoma
TK-10 renal = tested on: TK-10 renal
UACC-62 melanoma = tested on: UACC-62 melanoma
HOP-62 NSCLC = tested on: HOP-62 NSCLC
BT-549 breast = tested on: BT-549 breast

C/C(CC(=O)CCCC(=O)Nc1ccc(Cl)cc1Cl)=N/NC(=O)CC#N
> 100 µM: TGI (DLD-1 colon) | TGI (IGROV1 ovarian) | TGI (LXFL 529 NSCLC) | TGI (M14 melanoma) | TGI (SF-539 CNS) | TGI (SK-MEL-5 melanoma) | TGI (TK-10 renal) | TGI (UACC-62 melanoma)

CCOC(=O)C1Cc2c(ccc(OC)c2OC)C(=O)C1N (stereo not given)
> 100 µM: TGI (DLD-1 colon) | TGI (HOP-62 NSCLC) | TGI (IGROV1 ovarian) | TGI (LXFL 529 NSCLC) | TGI (M14 melanoma) | TGI (SF-539 CNS) | TGI (SK-MEL-5 melanoma) | TGI (TK-10 renal) | TGI (UACC-62 melanoma)

CCOC(=O)C12CCCC1(O)N(NC(=O)c1cccc(Cl)c1)C(C)=C2C(=O)OC (stereo not given)
> 100 µM: TGI (DLD-1 colon) | TGI (HOP-62 NSCLC) | TGI (IGROV1 ovarian) | TGI (LXFL 529 NSCLC) | TGI (M14 melanoma) | TGI (SF-539 CNS) | TGI (SK-MEL-5 melanoma) | TGI (UACC-62 melanoma)

C[C@]12CCC[C@H](OC=O)C1(O)C[C@H](C(=O)O)CC2 (stereo not given in full)
> 100 µM: TGI (DLD-1 colon) | TGI (HOP-62 NSCLC) | TGI (IGROV1 ovarian) | TGI (LXFL 529 NSCLC) | TGI (M14 melanoma) | TGI (SF-539 CNS) | TGI (SK-MEL-5 melanoma) | TGI (TK-10 renal)
32.5 µM: TGI (UACC-62 melanoma)

C=C(C)C1CC=C(C(=O)O)CC1 (stereo not given)
1450 µM: TGI (SK-MEL-5 melanoma) | TGI (UACC-62 melanoma)
2510 µM: TGI (SF-539 CNS)
> 5000 µM: TGI (DLD-1 colon) | TGI (LXFL 529 NSCLC) | TGI (M14 melanoma) | TGI (TK-10 renal)
1480 µM: TGI (IGROV1 ovarian)
1770 µM: TGI (HOP-62 NSCLC)

COC1=CC(=O)c2ccc(C(C)C)cc2C1(C)C1=NC(C)(C)CO1 (stereo not given)
> 100 µM: TGI (DLD-1 colon) | TGI (HOP-62 NSCLC) | TGI (IGROV1 ovarian) | TGI (LXFL 529 NSCLC) | TGI (M14 melanoma) | TGI (SF-539 CNS) | TGI (SK-MEL-5 melanoma) | TGI (TK-10 renal) | TGI (UACC-62 melanoma)

O=C(O)/C(Cl)=C(\Cl)Nc1cccc(C(F)(F)F)c1
33.4 µM: TGI (M14 melanoma)
> 100 µM: TGI (DLD-1 colon) | TGI (HOP-62 NSCLC) | TGI (IGROV1 ovarian) | TGI (LXFL 529 NSCLC) | TGI (TK-10 renal) | TGI (UACC-62 melanoma)

Cc1cc(N(CCC#N)CCC#N)ccc1/C=C1/CN(N2C(=O)/C(=C/c3ccc(N(CCC#N)CCC#N)cc3C)N=C2c2ccccc2)C(c2ccccc2)=N1
75.9 µM: TGI (TK-10 renal)
> 100 µM: TGI (DLD-1 colon) | TGI (HOP-62 NSCLC) | TGI (IGROV1 ovarian) | TGI (LXFL 529 NSCLC) | TGI (M14 melanoma) | TGI (SF-539 CNS) | TGI (SK-MEL-5 melanoma) | TGI (UACC-62 melanoma)

CC(=O)[CH-]C(=O)c1ccccc1.CC(=O)[CH-]C(=O)c1ccccc1.O=C([O-])C[O-].O=C([O-])C[O-].[Ti+4]
inactive: GI50 (HOP-62 NSCLC) 58.7 µM | GI50 (IGROV1 ovarian) > 100 µM | GI50 (LXFL 529 NSCLC) 33.5 µM | GI50 (M14 melanoma) 34.7 µM | GI50 (SF-539 CNS) 41.8 µM | GI50 (SK-MEL-5 melanoma) 31.9 µM | GI50 (UACC-62 melanoma) > 100 µM
> 100 µM: TGI (HOP-62 NSCLC) | TGI (IGROV1 ovarian) | TGI (LXFL 529 NSCLC) | TGI (M14 melanoma) | TGI (SF-539 CNS) | TGI (SK-MEL-5 melanoma) | TGI (UACC-62 melanoma)

CN1C(=O)n2c(nc3ccccc32)C(N=[N+]=[N-])(N=[N+]=[N-])C1=O (stereo not given)
> 100 µM: TGI (DLD-1 colon) | TGI (HOP-62 NSCLC) | TGI (IGROV1 ovarian) | TGI (LXFL 529 NSCLC) | TGI (M14 melanoma) | TGI (SF-539 CNS) | TGI (SK-MEL-5 melanoma) | TGI (TK-10 renal) | TGI (UACC-62 melanoma)

CC(C#N)c1cn(S(=O)(=O)c2ccccc2)c2ccccc12 (stereo not given)
> 100 µM: TGI (DLD-1 colon) | TGI (HOP-62 NSCLC) | TGI (IGROV1 ovarian) | TGI (LXFL 529 NSCLC) | TGI (M14 melanoma) | TGI (SF-539 CNS) | TGI (TK-10 renal) | TGI (UACC-62 melanoma)
36.9 µM: TGI (SK-MEL-5 melanoma)

Nn1c(CCCl)nc2c(Br)cc(Br)cc2c1=O
37.8 µM: TGI (SK-MEL-5 melanoma)
> 100 µM: TGI (TK-10 renal)
> 91.4 µM: TGI (SF-539 CNS)
> 79.4 µM: TGI (DLD-1 colon)
71.8 µM: TGI (HOP-62 NSCLC)
69.3 µM: TGI (LXFL 529 NSCLC)
> 70 µM: TGI (M14 melanoma)
60.3 µM: TGI (IGROV1 ovarian)
> 83.8 µM: TGI (UACC-62 melanoma)

CCC[CH2][Sn]1([CH2]CCC)[O]C(c2ccccn2)S(=O)(=O)[O]1 (stereo not given)
20.3 µM: TGI (IGROV1 ovarian)
inactive: GI50 (DLD-1 colon) 3.31 µM | GI50 (HOP-62 NSCLC) 28.1 µM | GI50 (IGROV1 ovarian) 6.47 µM | GI50 (LXFL 529 NSCLC) 1.54 µM | GI50 (M14 melanoma) 3.57 µM | GI50 (SF-539 CNS) 1.74 µM | GI50 (SK-MEL-5 melanoma) 12.5 µM | GI50 (TK-10 renal) 2.54 µM | GI50 (UACC-62 melanoma) 1.84 µM
43 µM: TGI (HOP-62 NSCLC)
3.93 µM: TGI (SF-539 CNS)
5.84 µM: TGI (TK-10 renal)
11.2 µM: TGI (M14 melanoma)
25 µM: TGI (SK-MEL-5 melanoma)
2.92 µM: TGI (LXFL 529 NSCLC)
3.78 µM: TGI (UACC-62 melanoma)
12.7 µM: TGI (DLD-1 colon)

CCN1C(C)=NC2C(=O)c3ccccc3C(=O)C21 (stereo not given)
> 100 µM: TGI (HOP-62 NSCLC) | TGI (IGROV1 ovarian) | TGI (LXFL 529 NSCLC) | TGI (M14 melanoma) | TGI (SF-539 CNS) | TGI (TK-10 renal) | TGI (UACC-62 melanoma)
68 µM: TGI (SK-MEL-5 melanoma)

COc1ccc2cc(C(=O)c3ccccc3C(=O)O)ccc2c1
> 100 µM: TGI (DLD-1 colon) | TGI (HOP-62 NSCLC) | TGI (IGROV1 ovarian) | TGI (LXFL 529 NSCLC) | TGI (M14 melanoma) | TGI (SK-MEL-5 melanoma) | TGI (TK-10 renal) | TGI (UACC-62 melanoma)

COc1ccc(-c2cc(-c3ccc(Nc4nc(Nc5ccc(Cl)cc5)nc(Nc5ccc(Cl)cc5)n4)cc3)no2)cc1
57.6 µM: TGI (UACC-62 melanoma)
20.3 µM: TGI (SK-MEL-5 melanoma)
inactive: GI50 (BT-549 breast) 17.2 µM | GI50 (HOP-62 NSCLC) 20.5 µM | GI50 (IGROV1 ovarian) 6.3 µM | GI50 (M14 melanoma) 16.2 µM | GI50 (SF-539 CNS) 17.2 µM | GI50 (SK-MEL-5 melanoma) 5.08 µM | GI50 (TK-10 renal) 20.4 µM | GI50 (UACC-62 melanoma) 23.1 µM
42.8 µM: TGI (IGROV1 ovarian)
60.5 µM: TGI (HOP-62 NSCLC)
57.8 µM: TGI (SF-539 CNS)
53.7 µM: TGI (M14 melanoma)
72.7 µM: TGI (TK-10 renal)
72 µM: TGI (BT-549 breast)

COc1cc2c(c(OC)c1OC)-c1ccc([O-])c(=O)cc1[C@@H](NC(C)=O)CC2.COc1cc2c(c(OC)c1OC)-c1ccc([O-])c(=O)cc1[C@@H](NC(C)=O)CC2.[Cu+2]
> 100 µM: TGI (BT-549 breast) | TGI (HOP-62 NSCLC) | TGI (M14 melanoma) | TGI (TK-10 renal)
12 µM: TGI (SK-MEL-5 melanoma)
inactive: GI50 (BT-549 breast) 2.56 µM | GI50 (HOP-62 NSCLC) 5.67 µM | GI50 (IGROV1 ovarian) 5.59 µM | GI50 (M14 melanoma) 2.79 µM | GI50 (SF-539 CNS) 1.88 µM | GI50 (SK-MEL-5 melanoma) 2.94 µM | GI50 (TK-10 renal) 9.55 µM | GI50 (UACC-62 melanoma) 1.86 µM
4.53 µM: TGI (SF-539 CNS)
47.1 µM: TGI (IGROV1 ovarian)
11.4 µM: TGI (UACC-62 melanoma)

CC1(C)CC23C(=O)N(c4ccccc4)C(=Nc4ccccc4)NC2=CC(C#N)=C(C#N)C3O1 (stereo not given)
> 100 µM: TGI (DLD-1 colon) | TGI (HOP-62 NSCLC) | TGI (IGROV1 ovarian) | TGI (LXFL 529 NSCLC) | TGI (M14 melanoma) | TGI (SF-539 CNS) | TGI (TK-10 renal) | TGI (UACC-62 melanoma)
95.5 µM: TGI (SK-MEL-5 melanoma)

O=C1c2ccccc2C(=O)N1/N=C\c1ccc(Br)cc1
inactive: GI50 (DLD-1 colon) > 100 µM | GI50 (HOP-62 NSCLC) > 100 µM | GI50 (IGROV1 ovarian) > 100 µM | GI50 (LXFL 529 NSCLC) > 100 µM | GI50 (M14 melanoma) > 100 µM | GI50 (SF-539 CNS) > 100 µM | GI50 (SK-MEL-5 melanoma) > 100 µM | GI50 (UACC-62 melanoma) > 100 µM
> 10 µM: TGI (TK-10 renal)
> 100 µM: TGI (DLD-1 colon) | TGI (HOP-62 NSCLC) | TGI (IGROV1 ovarian) | TGI (LXFL 529 NSCLC) | TGI (M14 melanoma) | TGI (SF-539 CNS) | TGI (SK-MEL-5 melanoma) | TGI (UACC-62 melanoma)

CC1=CC(=O)C(C)(C2=NC(C)(C)CO2)c2ccccc21 (stereo not given)
> 100 µM: TGI (DLD-1 colon) | TGI (HOP-62 NSCLC) | TGI (IGROV1 ovarian) | TGI (LXFL 529 NSCLC) | TGI (M14 melanoma) | TGI (SF-539 CNS) | TGI (SK-MEL-5 melanoma) | TGI (TK-10 renal) | TGI (UACC-62 melanoma)
